Test results taken from PMC8138939 (Clinical pharmacology and therapeutics, 2020).
Where two headings read alike, the source gives them in different places. Marks after values point to notes of the source that are not given here. Each block holds one molecule with its values, some of them ahead of it.

Tests used:
[1] = Adult sildenafil/DMS PBPK population simulations; set-up: species or system human
[2] = ref [46]; cited from earlier work
plasma protein (AAG) = settings: cited from earlier work; for fu, predominant plasma binding protein: AAG, ref [15],[16]
CYP3A4 [3] = target: T1, CYP3A4 (Homo sapiens, UniProt P08684); settings: cited from earlier work
CYP3A5 [4] = target: T2, CYP3A5 (Homo sapiens, UniProt P20815); settings: cited from earlier work
CYP3A7 [5] = target: T3, CYP3A7 (Homo sapiens, UniProt P24462); settings: ref [18], cited from earlier work
[6] = cited from earlier work; for DMS AUC Observed / Sildenafil AUC Observed: geometric mean
[7] = with vs without ritonavir; day 8; cited from earlier work
CYP3A4 [8] = target: T1, CYP3A4; test: Fluconazole inhibition of 6β-hydroxytestosterone formation, recombinant CYP3A4; format: biochemical
CYP3A5 [9] = target: T2, CYP3A5; test: Fluconazole inhibition of 6β-hydroxytestosterone formation, recombinant CYP3A5; format: biochemical
CYP3A7 [10] = target: T3, CYP3A7; test: Fluconazole inhibition of 6β-hydroxytestosterone formation, recombinant CYP3A7; format: biochemical
CYP3A4/5/7 = settings: read-out: KM CYP3A4/5/7 sink; remainder of sildenafil metabolites; fixed; ref [27]; cited from earlier work
CYP2C9 = settings: DMS formation, ref [12], cited from earlier work
[11] = cited from earlier work; for sildenafil clearance (CL): 36 term neonates, i.v. sildenafil; for Sildenafil CL Observed / Sildenafil Vss Observed: PopPK typical value scaled to 70 kg
[12] = PopPK, cited from earlier work
phosphodiesterase type 5 = settings: ref [37], cited from earlier work
[13] = adults with pulmonary arterial hypertension; ref [44]; cited from earlier work
[14] = children 1 to 17 years; low dose 10 mg in children > 20 kg; ref [24]; cited from earlier work

T2 sequence (P20815 whole entry): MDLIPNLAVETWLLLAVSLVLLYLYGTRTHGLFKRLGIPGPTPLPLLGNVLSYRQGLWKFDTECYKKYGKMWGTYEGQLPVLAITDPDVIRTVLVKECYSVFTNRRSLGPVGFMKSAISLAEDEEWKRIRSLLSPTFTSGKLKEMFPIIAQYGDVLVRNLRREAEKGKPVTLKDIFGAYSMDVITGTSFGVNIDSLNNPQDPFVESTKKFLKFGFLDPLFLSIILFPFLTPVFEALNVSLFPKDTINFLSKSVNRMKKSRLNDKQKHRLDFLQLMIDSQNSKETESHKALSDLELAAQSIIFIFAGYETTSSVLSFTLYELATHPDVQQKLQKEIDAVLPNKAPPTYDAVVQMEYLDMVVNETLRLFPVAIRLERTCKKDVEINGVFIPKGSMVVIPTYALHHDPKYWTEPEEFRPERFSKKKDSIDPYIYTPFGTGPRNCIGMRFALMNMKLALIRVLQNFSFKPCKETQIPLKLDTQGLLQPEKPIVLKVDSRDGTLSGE
T3 sequence (P24462 whole entry): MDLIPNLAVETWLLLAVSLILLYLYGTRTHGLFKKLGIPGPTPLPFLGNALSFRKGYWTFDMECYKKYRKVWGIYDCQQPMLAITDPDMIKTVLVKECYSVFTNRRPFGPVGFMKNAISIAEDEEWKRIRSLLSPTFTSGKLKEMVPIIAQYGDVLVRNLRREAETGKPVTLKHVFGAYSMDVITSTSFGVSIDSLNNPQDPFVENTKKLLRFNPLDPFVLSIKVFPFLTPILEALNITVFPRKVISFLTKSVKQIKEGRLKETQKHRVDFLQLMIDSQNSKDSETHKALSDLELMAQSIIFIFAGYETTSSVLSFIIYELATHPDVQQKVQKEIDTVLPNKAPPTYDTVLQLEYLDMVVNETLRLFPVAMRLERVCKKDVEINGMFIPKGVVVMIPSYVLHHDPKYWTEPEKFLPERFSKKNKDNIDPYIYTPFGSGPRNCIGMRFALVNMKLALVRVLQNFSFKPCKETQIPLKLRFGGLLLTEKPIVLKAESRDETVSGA
T1 sequence (P08684 2-503 limits assumed): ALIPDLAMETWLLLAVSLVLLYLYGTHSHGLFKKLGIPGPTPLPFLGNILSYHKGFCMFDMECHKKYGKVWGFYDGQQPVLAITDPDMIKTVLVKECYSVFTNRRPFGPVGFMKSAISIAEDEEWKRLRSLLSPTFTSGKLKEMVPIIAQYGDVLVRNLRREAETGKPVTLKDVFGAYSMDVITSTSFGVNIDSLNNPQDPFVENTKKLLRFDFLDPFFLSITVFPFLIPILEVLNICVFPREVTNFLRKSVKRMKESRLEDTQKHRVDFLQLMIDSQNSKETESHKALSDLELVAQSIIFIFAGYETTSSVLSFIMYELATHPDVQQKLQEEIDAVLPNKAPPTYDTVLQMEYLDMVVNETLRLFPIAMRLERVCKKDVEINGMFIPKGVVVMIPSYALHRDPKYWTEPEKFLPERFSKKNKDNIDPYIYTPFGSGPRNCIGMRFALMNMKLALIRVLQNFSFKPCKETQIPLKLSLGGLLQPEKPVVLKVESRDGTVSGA

- DMS AUC Ratio simulated/observed ([1]; 25 mg sildenafil single oral dose): 1.01
- DMS AUC Ratio simulated/observed ([1]; 50 mg sildenafil single oral dose): 0.94
- DMS AUC Ratio simulated/observed ([1]; 100 mg sildenafil single oral dose): 0.85
- DMS AUC Ratio simulated/observed ([1]; 200 mg sildenafil single oral dose): 0.79
- DMS AUC Ratio simulated/observed ([1]; sildenafil 25 mg/25-minute infusion i.v.): 1.87
Structure (SMILES): CCCc1nn(C)c2c(=O)[nH]c(-c3cc(S(=O)(=O)N4CCNCC4)ccc3OCC)nc12 [DMS, N-desmethylsildenafil]
- Water solubility [2]: 419 µg/mL
- pKa [2]: 7.16
- fu, predominant plasma binding protein (plasma protein (AAG)): 0.04 (AAG)
- in vitro formation kinetic intrinsic clearance (CLint) for DMS (CYP3A4 [3]; CYP3A4, ref [18]): 0.733 μL/min/pmol CYP3A
- in vitro formation kinetic intrinsic clearance (CLint) for DMS (CYP3A5 [4]; CYP3A5, ref [18]): 0.788 μL/min/pmol CYP3A
- in vitro formation kinetic intrinsic clearance (CLint) for DMS (CYP3A7 [5]; CYP3A7): 0.079 μL/min/pmol CYP3A
- DMS AUC Observed ([6]; 25 mg sildenafil single oral dose, AUC0–∞, ref [47]): 147 ng·h/mL
- DMS AUC Observed ([6]; 50 mg sildenafil single oral dose, AUC0–∞, ref [47]): 328 ng·h/mL
- DMS AUC Observed ([6]; 100 mg sildenafil single oral dose, AUC0–∞, ref [47]): 776 ng·h/mL
- DMS AUC Observed ([6]; 200 mg sildenafil single oral dose, AUC0–∞, ref [47]): 1822 ng·h/mL
- DMS AUC Observed ([6]; sildenafil 25 mg/25-minute infusion i.v., AUC0–∞, ref [13]): 147 ng·h/mL
- DMS AUC0-24 Fold Change observed [7]: 1.7

- Alpha (CYP3A4 [8]; mixed model, value (90% CI)): 16.6 (6.1–178)
- Inhibition type (CYP3A4 [8]; recombinant CYP3A4, testosterone probe): mixed competitive inhibitor
- KI uncompetitive (CYP3A4 [8]; value (90% CI)): 83.1 (67.4–102.9) μM
- Ki (CYP3A5 [9]; KI competitive, value (90% CI)): 70.8 µM
- Ki (CYP3A5 [9]; KI global, net value of mixed model, value (90% CI), triplicates): 182 µM
- Alpha (CYP3A5 [9]; mixed model, value (90% CI)): 2.6 (0.5–13.9)
- Inhibition type (CYP3A5 [9]; recombinant CYP3A5, testosterone probe): mixed competitive inhibitor
- KI uncompetitive (CYP3A5 [9]; value (90% CI)): 238.7 (183.2–318.9) μM
- Alpha (CYP3A7 [10]; mixed model, value (90% CI)): 13.5 (1.8–∞)
- Inhibition type (CYP3A7 [10]; recombinant CYP3A7, testosterone probe): mixed competitive inhibitor
- KI uncompetitive (CYP3A7 [10]; value (90% CI)): 389.0 (266.7–610.3) μM
Structure (SMILES): OC(Cn1cncn1)(Cn1cncn1)c1ccc(F)cc1F [Fluconazole, fluconazole]

Structure (SMILES): CCCc1nn(C)c2c(=O)[nH]c(-c3cc(S(=O)(=O)N4CCN(C)CC4)ccc3OCC)nc12 [Sildenafil, sildenafil]
- pKa [2]: 5.97
- fu, predominant plasma binding protein (plasma protein (AAG)): 0.04 (AAG)
- protein binding of sildenafil (plasma protein (AAG); infants, ref [20]): 93.9%
- Vmax CYP3A4 DMS (CYP3A4 [3]; DMS formation, ref [27]): 1.00 pmol/min/pmol
- Km (CYP3A4 [3]; read-out: KM CYP3A4 DMS, DMS formation, ref [27]): 15 µM
- Km (CYP3A5 [4]; read-out: KM CYP3A5 DMS, DMS formation, ref [27]): 14.7 µM
- Km (CYP3A7 [5]; read-out: KM CYP3A7 DMS, DMS formation): 5.71 µM
- Km (CYP3A4/5/7): 15 µM
- Vmax CYP2C9 DMS (CYP2C9): 78 pmol/min/mg
- Km (CYP2C9; read-out: KM CYP2C9 DMS): 27 µM
- Sildenafil AUC Observed ([6]; 10 mg i.v. bolus, adults with pulmonary arterial hypertension, AUC0–τ (8 hours), ref [49]): 330 ng·h/mL
- Sildenafil AUC Observed ([6]; 25 mg single oral dose, healthy men, AUC0–∞, ref [47]): 361 ng·h/mL
- Sildenafil AUC Observed ([6]; 25 mg/25-minute infusion i.v., healthy adult men, AUC0–∞, ref [13]): 971 ng·h/mL
- Sildenafil AUC Observed ([6]; 50 mg single oral dose, healthy men, AUC0–∞, ref [47]): 738 ng·h/mL
- Sildenafil AUC Observed ([6]; 50 mg/50-minute infusion i.v., healthy men, AUC0–∞, ref [47]): 1291 ng·h/mL
- Sildenafil AUC Observed ([6]; 80 mg p.o. t.i.d. after 20 mg t.i.d. for 3 days, healthy men, AUC0–τ, ref [48]): 1720 ng·h/mL
- Sildenafil AUC Observed ([6]; 100 mg single oral dose, healthy men, AUC0–∞, ref [47]): 1685 ng·h/mL
- Sildenafil AUC Observed ([6]; 200 mg single oral dose, healthy men, AUC0–∞, ref [47]): 3755 ng·h/mL
- Sildenafil CL Observed ([6]; Healthy adults, PopPK, mean (inter-individual variability), ref [50]): 29.5 (31.2%)^d liters/hour
- Sildenafil Vss Observed ([6]; Healthy adults, PopPK, ref [50]): 107 (N/A)^d liters
- Sildenafil CL Observed ([6]; Patients with PAH, 10 mg i.v. bolus, ref [49]): 32.2 (N/A)^c liters/hour
- Sildenafil Vss Observed ([6]; Patients with PAH, reported as terminal phase volume (Vz), ref [49]): 137 (N/A)^c liters
- sildenafil clearance (CL) ([11]; 7 days of age, ref [19]): 2.58 L/h
- sildenafil clearance (CL) ([11]; day 1, ref [19]): 0.84 L/h
- Sildenafil CL Observed ([11]; Preterm infants, ref [21]): 27.8 (33.3%)^b,e liters/hour
- Sildenafil Vss Observed ([11]; Preterm infants, ref [21]): 144 (N/A)^b,e liters
- Sildenafil CL Observed ([11]; Term neonates, ref [19]): 24.7 (54.7%)^b,f liters/hour
- Sildenafil Vss Observed ([11]; Term neonates, ref [19]): 456 (N/A)^b,f liters
- Vss in full-term neonates, not scaled ([11]; full-term neonates, ref [20]): 22.4 L
- decrease in sildenafil clearance by fluconazole ([12]; 11 infants 2–121 days old, 3 with fluconazole, nasogastric tube, ref [20]): 47%
- decrease in sildenafil CL by fluconazole ([12]; 34 preterm infants, 4 with fluconazole, ref [21]): 59%
- unbound inhibition of in vitro phosphodiesterase type 5 activity (phosphodiesterase type 5; at steady-state Cmax 47 ng/mL): 53%
- unbound inhibition of in vitro phosphodiesterase type 5 activity (phosphodiesterase type 5; at steady-state Cmax 140 ng/mL): 77%
- unbound inhibition of in vitro phosphodiesterase type 5 activity (phosphodiesterase type 5; at steady-state Cmax 373 ng/mL): 90%
- concentration of half-maximal effect, pulmonary vascular resistance [13]: 17 ng/mL
- concentration that produces the maximal effect, pulmonary vascular resistance [13]: around 100 ng/mL
- efficacy of the low dose [14]: ineffective
